Test results taken from patent publication US10189842B2 (Agency for Science, Technology and Research, priority 2013, dated 2019).

Test system: HEK293-STF3A cells
Assay: STF3A assay (luciferase reporter)
Assay type: cell-based, Human
Conditions: Homo sapiens, 24 h, 1 day of treatment
Text: HEK293-STF cell line was modified from Human embryonic kidney cell line HEK293 transfected with the STF reporter. HEK293-STF3A cell line was further modified from HEK293-STF cell line to express Wnt3A. This cell line was used to identify compounds that regulate either early or late signaling components of the Wnt pathway. These two cell lines were obtained from David Virshup's laboratory, Duke-NUS. L-Wnt3A (ATCC, #CRL-2647) cell line was used for providing Wnt3A conditioned media. The three cell lines were grown in DMEM with 10% FBS incubated in 37° C. with 5% CO2.
2×10^4 HEK293-STF3A cells in 75 μl culture media were seeded in each well of white 96 well plates (Greiner #655098) and incubated overnight at 37° C. 25 μl serially diluted compound was added to the cells to give final concentration of 50 μM to 1.5 nM. After 1 day of treatment, 100 μl of Steady-Glo Luciferase Assay reagent (#E2520, Promega) was added to each well and incubated for 10 minutes at room temperature. Luminescence was measured using Tecan Safire2 plate reader.

Row | SMILES | IC50
1 | Cc1cc2n(n1)CCCN2C(=O)CCC(=O)Nc1cc(-c2ccc(Cl)cc2)no1 [Compound 5, N-(3-(4-chlorophenyl)isoxazol-5-yl)-4-(2-methyl-6,7-dihydropyrazolo[1,5-a]pyrimidin-4(5H)-yl)-4-oxobutanamide] | < 100 nM
2 | Cc1cc2n(n1)CC(C)CN2C(=O)CCC(=O)Nc1ccc(-c2ccccn2)cn1 (stereo not shown) [Compound 171, N-([2,3′-bipyridin]-6′-yl)-4-(2,6-dimethyl-6,7-dihydropyrazolo[1,5-a]pyrimidin-4(5H)-yl)-4-oxobutanamide] | < 100 nM
3 | Cc1cc2n(n1)CCCN2C(=O)CCC(=O)Nc1cc(-c2ccc(Cl)c(Cl)c2)no1 [Compound 7, N-(3-(3,4-dichlorophenyl)isoxazol-5-yl)-4-(2-methyl-6,7-dihydropyrazolo[1,5-a]pyrimidin-4(5H)-yl)-4-oxobutanamide] | > 10000 nM
4 | Cc1cc2n(n1)CCCN2C(=O)CCC(=O)Nc1ccc(-c2ccccc2)cn1 [Compound 44, 4-(2-methyl-6,7-dihydropyrazolo[1,5-a]pyrimidin-4(5H)-yl)-4-oxo-N-(5-phenylpyridin-2-yl)butanamide] | < 100 nM
5 | Cc1cccc(-c2ccc(NC(=O)CCC(=O)N3CCCn4nc(C)cc43)nn2)c1 [Compound 99, 4-(2-methyl-6,7-dihydropyrazolo[1,5-a]pyrimidin-4(5H)-yl)-4-oxo-N-(6-(m-tolyl)pyridazin-3-yl)butanamide] | < 100 nM
6 | Cc1cccc(-c2ccc(NC(=O)CCC(=O)N3CCCn4nc(C)cc43)nc2)c1 [Compound 93, 4-(2-methyl-6,7-dihydropyrazolo[1,5-a]pyrimidin-4(5H)-yl)-4-oxo-N-(5-(m-tolyl)pyridin-2-yl)butanamide] | < 100 nM
7 | Cc1cc2n(n1)CCCN2C(=O)CCC(=O)Nc1cc(-c2ccccc2C)no1 [Compound 12, 4-(2-methyl-6,7-dihydropyrazolo[1,5-a]pyrimidin-4(5H)-yl)-4-oxo-N-(3-(o-tolyl)isoxazol-5-yl)butanamide] | < 100 nM
8 | Cc1cc2n(n1)CCCN2C(=O)CCC(=O)Nc1ccc(N2CCN(C(=O)OC(C)(C)C)CC2)cc1 [Compound 76, tert-butyl 4-(4-(4-(2-methyl-6,7-dihydropyrazolo[1,5-a]pyrimidin-4(5H)-yl)-4-oxobutanamido)phenyl)piperazine-1-carboxylate] | < 100 nM
9 | Cc1cc2n(n1)CCCN2C(=O)CCC(=O)Nc1ccc(-c2cccc(C(=O)O)c2)cc1 [Compound 67, 4′-(4-(2-methyl-6,7-dihydropyrazolo[1,5-a]pyrimidin-4(5H)-yl)-4-oxobutanamido)-[1,1′-biphenyl]-3-carboxylic acid] | > 10000 nM
10 | Cc1cc2n(n1)CCCN2C(=O)CCC(=O)NC1CCC(c2ccccc2)CC1 (stereo not shown) [Compound 80, 4-(2-methyl-6,7-dihydropyrazolo[1,5-a]pyrimidin-4(5H)-yl)-4-oxo-N-(4-phenylcyclohexyl)butanamide] | > 10000 nM
11 | Cc1ccc(-c2cnc(NC(=O)CCC(=O)N3CCCn4nc(C)cc43)cn2)cn1 [Compound 127, 4-(2-methyl-6,7-dihydropyrazolo[1,5-a]pyrimidin-4(5H)-yl)-N-(5-(6-methylpyridin-3-yl)pyrazin-2-yl)-4-oxobutanamide] | < 1000 nM
12 | Cc1cc2n(n1)CCCN2C(=O)CCC(=O)Nc1cc(C)c(-c2cccnc2)nn1 [Compound 106, 4-(2-methyl-6,7-dihydropyrazolo[1,5-a]pyrimidin-4(5H)-yl)-N-(5-methyl-6-(pyridin-3-yl)pyridazin-3-yl)-4-oxobutanamide] | < 5000 nM
13 | CC(=O)N1CCN(c2ccc(NC(=O)CCC(=O)N3CCCn4nc(C)cc43)cc2)CC1 [Compound 78, N-(4-(4-acetylpiperazin-1-yl)phenyl)-4-(2-methyl-6,7-dihydropyrazolo[1,5-a]pyrimidin-4(5H)-yl)-4-oxobutanamide] | > 10000 nM
14 | Cc1cc2n(n1)C[C@H](C)CN2C(=O)CCC(=O)Nc1ccc(-c2cccnc2)cn1 [Compound 170, N-(3,3′-bipyridin-6-yl)-4-(2,6-dimethyl-6,7-dihydropyrazolo[1,5-a]pyrimidin-4(5H)-yl)-4-oxobutanamide] | < 100 nM
15 | Cc1cncc(-c2ccc(NC(=O)CCC(=O)N3CC(C)Cn4nc(C)cc43)cn2)c1 (stereo not shown) [Compound 144, 4-(2,6-dimethyl-6,7-dihydropyrazolo[1,5-a]pyrimidin-4(5H)-yl)-N-(5′-methyl-[2,3′-bipyridin]-5-yl)-4-oxobutanamide] | < 100 nM
16 | Cc1cc2n(n1)CCCN2C(=O)CCC(=O)Nc1ccc(-c2cncc(Cl)c2)cn1 [Compound 114, N-(5′-chloro-[3,3′-bipyridin]-6-yl)-4-(2-methyl-6,7-dihydropyrazolo[1,5-a]pyrimidin-4(5H)-yl)-4-oxobutanamide] | < 100 nM
17 | Cc1cc2n(n1)CC(C)CN2C(=O)CCC(=O)Nc1ccc(-c2cncc(F)c2)nc1 (stereo not shown) [Compound 162, 4-(2,6-dimethyl-6,7-dihydropyrazolo[1,5-a]pyrimidin-4(5H)-yl)-N-(5′-fluoro-[2,3′-bipyridin]-5-yl)-4-oxobutanamide] | < 100 nM
18 | Cc1cc2n(n1)CCCN2C(=O)CCC(=O)Nc1ccc(-c2ccccc2C)cc1 [Compound 58, 4-(2-methyl-6,7-dihydropyrazolo[1,5-a]pyrimidin-4(5H)-yl)-N-(2′-methyl-[1,1′-biphenyl]-4-yl)-4-oxobutanamide] | < 100 nM
19 | Cc1cc2n(n1)CCCN2C(=O)CCC(=O)Nc1nc(-c2cccc(Cl)c2)no1 [Compound 22, N-(3-(3-chlorophenyl)-1,2,4-oxadiazol-5-yl)-4-(2-methyl-6,7-dihydropyrazolo[1,5-a]pyrimidin-4(5H)-yl)-4-oxobutanamide] | > 10000 nM
20 | Cc1cc2n(n1)CC(C)CN2C(=O)CCC(=O)Nc1ccc(-c2cccnc2)nn1 (stereo not shown) [Compound 141, 4-(2,6-dimethyl-6,7-dihydropyrazolo[1,5-a]pyrimidin-4(5H)-yl)-4-oxo-N-(6-(pyridin-3-yl)pyridazin-3-yl)butanamide] | < 100 nM
21 | COc1cc(NC(=O)CCC(=O)N2CCCn3nc(C)cc32)ccc1-c1ccccc1 [Compound 56, N-(2-methoxy-[1,1′-biphenyl]-4-yl)-4-(2-methyl-6,7-dihydropyrazolo[1,5-a]pyrimidin-4(5H)-yl)-4-oxobutanamide] | < 5000 nM
22 | Cc1cc(NC(=O)CCC(=O)N2CCCn3nc(C)cc32)on1 [Compound 1, 4-(2-methyl-6,7-dihydropyrazolo[1,5-a]pyrimidin-4(5H)-yl)-N-(3-methylisoxazol-5-yl)-4-oxobutanamide] | > 10000 nM
23 | Cc1cncc(-c2ccc(NC(=O)CCC(=O)N3CC(C)Cn4nc(C)cc43)nc2)n1 (stereo not shown) [Compound 157, 4-(2,6-dimethyl-6,7-dihydropyrazolo[1,5-a]pyrimidin-4(5H)-yl)-N-(5-(6-methylpyrazin-2-yl)pyridin-2-yl)-4-oxobutanamide] | < 100 nM
24 | Cc1cnc(-c2ccc(NC(=O)CCC(=O)N3CCCn4nc(C)cc43)nc2)cn1 [Compound 149, 4-(2-methyl-6,7-dihydropyrazolo[1,5-a]pyrimidin-4(5H)-yl)-N-(5-(5-methylpyrazin-2-yl)pyridin-2-yl)-4-oxobutanamide] | < 100 nM
25 | Cc1cc2n(n1)CC(C)CN2C(=O)CCC(=O)Nc1ccc(-c2cncc(F)c2)cn1 (stereo not shown) [Compound 163, 4-(2,6-dimethyl-6,7-dihydropyrazolo[1,5-a]pyrimidin-4(5H)-yl)-N-(5′-fluoro-[3,3′-bipyridin]-6-yl)-4-oxobutanamide] | < 100 nM
